Assays:
[1] = molecular target: Activin receptor type-1-like (Homo sapiens) (UniProt P37023); test: Inhibition of ACVRL1 (unknown origin) assessed as residual activity at 1000 nM by KINOMEscan analysis relative to control
[2] = molecular target: T1, Serine/threonine-protein kinase D2 (Homo sapiens) (UniProt Q9BZL6); test: Inhibition of PRKD2 (unknown origin) assessed as residual activity at 1000 nM by KINOMEscan analysis relative to control
T1 sequence (whole entry): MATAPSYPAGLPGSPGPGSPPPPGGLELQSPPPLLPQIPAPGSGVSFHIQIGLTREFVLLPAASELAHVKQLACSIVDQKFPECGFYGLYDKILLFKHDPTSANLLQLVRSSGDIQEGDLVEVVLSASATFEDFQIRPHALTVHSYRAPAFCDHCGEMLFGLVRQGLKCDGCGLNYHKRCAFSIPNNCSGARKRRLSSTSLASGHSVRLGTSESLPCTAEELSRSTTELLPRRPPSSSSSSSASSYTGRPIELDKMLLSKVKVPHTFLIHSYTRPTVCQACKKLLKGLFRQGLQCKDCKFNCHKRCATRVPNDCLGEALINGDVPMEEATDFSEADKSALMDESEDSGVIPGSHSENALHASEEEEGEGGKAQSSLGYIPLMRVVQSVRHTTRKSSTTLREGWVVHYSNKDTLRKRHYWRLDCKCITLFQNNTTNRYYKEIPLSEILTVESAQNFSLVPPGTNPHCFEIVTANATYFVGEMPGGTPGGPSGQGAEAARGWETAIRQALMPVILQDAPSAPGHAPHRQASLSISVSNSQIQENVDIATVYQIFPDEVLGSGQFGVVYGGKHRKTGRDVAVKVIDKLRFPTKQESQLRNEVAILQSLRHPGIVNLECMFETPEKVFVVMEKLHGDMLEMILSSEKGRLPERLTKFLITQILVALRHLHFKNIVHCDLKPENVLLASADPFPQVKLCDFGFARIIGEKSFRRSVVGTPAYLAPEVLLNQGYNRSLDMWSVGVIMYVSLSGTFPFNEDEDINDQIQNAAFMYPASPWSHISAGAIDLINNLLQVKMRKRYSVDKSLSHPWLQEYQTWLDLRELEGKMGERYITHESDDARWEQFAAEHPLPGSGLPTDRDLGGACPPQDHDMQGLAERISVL

[3] = molecular target: T2, Serine/threonine-protein kinase TBK1 (Homo sapiens) (UniProt Q9UHD2); test: Inhibition of TBK1 (unknown origin) assessed as residual activity at 1000 nM by KINOMEscan analysis relative to control
T2 sequence (whole entry): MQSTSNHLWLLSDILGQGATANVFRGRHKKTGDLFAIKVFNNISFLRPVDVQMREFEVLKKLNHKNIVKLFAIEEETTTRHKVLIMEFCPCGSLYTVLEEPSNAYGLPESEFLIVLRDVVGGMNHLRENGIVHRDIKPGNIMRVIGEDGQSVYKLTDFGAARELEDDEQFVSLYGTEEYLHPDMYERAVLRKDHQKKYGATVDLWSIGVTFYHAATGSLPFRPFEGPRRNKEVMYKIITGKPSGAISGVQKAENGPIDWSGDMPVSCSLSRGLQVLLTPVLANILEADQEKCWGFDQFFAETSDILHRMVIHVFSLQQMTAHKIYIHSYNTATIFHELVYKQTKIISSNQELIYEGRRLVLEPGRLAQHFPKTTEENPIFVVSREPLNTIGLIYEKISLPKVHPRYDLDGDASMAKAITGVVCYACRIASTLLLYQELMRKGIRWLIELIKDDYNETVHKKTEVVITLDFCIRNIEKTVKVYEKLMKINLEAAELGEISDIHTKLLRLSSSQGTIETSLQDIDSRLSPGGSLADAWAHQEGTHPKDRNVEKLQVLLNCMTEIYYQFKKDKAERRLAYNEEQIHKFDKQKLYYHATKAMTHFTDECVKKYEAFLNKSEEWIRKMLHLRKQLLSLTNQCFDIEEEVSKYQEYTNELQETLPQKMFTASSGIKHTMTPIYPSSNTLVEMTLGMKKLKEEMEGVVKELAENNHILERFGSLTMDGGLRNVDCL

[4] = molecular target: Ribosomal protein S6 kinase alpha-2 (Homo sapiens) (UniProt Q15349); test: Inhibition of N-terminal RSK3 […] domain 1 (unknown origin) assessed as residual activity at 1000 nM by KINOMEscan analysis relative to control
[5] = molecular target: Calcium/calmodulin-dependent protein kinase type II subunit gamma (Homo sapiens) (UniProt Q13555); test: Inhibition of CAMK2G (unknown origin) assessed as residual activity at 1000 nM by KINOMEscan analysis relative to control
[6] = molecular target: Ribosomal protein S6 kinase alpha-3 (Homo sapiens) (UniProt P51812); test: Inhibition of C-terminal RSK2 kinetic domain 2 (unknown origin) assessed as residual activity at 1000 nM by KINOMEscan analysis relative to control
[7] = molecular target: Non-receptor tyrosine-protein kinase TYK2 (Homo sapiens) (UniProt P29597); test: Inhibition of TYK2 JH1 catalytic domain (unknown origin) assessed as residual activity at 1000 nM by KINOMEscan analysis relative to control
Sequence of Non-receptor tyrosine-protein kinase TYK2 (Homo sapiens) (P29597 whole entry, the tested form may be a part): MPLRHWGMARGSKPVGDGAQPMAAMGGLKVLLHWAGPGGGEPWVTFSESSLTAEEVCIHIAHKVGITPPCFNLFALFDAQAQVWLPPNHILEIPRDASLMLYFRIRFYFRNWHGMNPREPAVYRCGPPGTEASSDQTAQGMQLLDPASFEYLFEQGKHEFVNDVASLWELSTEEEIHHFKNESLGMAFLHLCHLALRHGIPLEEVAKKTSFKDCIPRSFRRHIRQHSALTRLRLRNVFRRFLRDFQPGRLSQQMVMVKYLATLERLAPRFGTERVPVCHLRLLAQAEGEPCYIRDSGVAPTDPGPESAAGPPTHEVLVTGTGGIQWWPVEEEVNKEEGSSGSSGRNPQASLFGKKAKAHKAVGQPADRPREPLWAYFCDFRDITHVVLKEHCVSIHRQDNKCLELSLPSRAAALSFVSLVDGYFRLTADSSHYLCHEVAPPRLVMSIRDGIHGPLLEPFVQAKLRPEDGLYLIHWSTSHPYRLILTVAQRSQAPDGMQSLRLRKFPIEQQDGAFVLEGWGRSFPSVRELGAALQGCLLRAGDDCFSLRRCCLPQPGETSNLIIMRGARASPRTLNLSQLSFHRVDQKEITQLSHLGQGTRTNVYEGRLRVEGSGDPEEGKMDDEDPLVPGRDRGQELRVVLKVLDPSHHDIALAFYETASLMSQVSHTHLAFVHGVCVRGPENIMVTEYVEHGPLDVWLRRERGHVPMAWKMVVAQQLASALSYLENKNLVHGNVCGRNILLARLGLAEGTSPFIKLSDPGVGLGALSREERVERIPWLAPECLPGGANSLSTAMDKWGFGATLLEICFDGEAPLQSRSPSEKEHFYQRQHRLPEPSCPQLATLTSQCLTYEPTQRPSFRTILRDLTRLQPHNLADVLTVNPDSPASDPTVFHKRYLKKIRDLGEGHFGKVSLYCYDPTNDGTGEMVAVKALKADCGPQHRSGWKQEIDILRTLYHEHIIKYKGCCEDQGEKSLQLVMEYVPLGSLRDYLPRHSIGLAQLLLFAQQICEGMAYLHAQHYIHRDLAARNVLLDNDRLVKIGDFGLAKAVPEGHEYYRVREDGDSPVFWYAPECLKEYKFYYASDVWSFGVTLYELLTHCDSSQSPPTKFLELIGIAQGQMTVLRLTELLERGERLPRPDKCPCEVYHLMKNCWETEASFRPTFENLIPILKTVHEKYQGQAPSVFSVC

Sequence of Ribosomal protein S6 kinase alpha-3 (Homo sapiens) (P51812 whole entry, the tested form may be a part): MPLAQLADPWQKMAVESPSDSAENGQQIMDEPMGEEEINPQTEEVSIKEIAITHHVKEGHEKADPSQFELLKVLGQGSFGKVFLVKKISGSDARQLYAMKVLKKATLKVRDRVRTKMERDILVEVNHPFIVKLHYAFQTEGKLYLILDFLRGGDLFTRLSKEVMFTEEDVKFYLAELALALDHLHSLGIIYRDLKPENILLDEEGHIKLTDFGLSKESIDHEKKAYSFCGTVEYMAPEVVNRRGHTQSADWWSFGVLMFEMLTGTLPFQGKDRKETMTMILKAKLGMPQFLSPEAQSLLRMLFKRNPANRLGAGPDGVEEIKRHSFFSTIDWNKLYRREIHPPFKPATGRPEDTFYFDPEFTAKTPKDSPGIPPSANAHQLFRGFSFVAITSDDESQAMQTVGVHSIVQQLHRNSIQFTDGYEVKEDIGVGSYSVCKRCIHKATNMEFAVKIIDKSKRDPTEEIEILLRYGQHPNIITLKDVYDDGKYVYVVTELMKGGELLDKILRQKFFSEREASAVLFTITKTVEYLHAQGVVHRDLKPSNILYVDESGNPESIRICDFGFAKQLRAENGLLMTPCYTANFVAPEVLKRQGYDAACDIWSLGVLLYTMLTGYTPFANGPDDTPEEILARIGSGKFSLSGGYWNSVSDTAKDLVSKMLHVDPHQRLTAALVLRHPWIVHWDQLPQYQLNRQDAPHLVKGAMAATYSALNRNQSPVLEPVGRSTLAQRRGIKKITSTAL
Sequence of Ribosomal protein S6 kinase alpha-2 (Homo sapiens) (Q15349 whole entry): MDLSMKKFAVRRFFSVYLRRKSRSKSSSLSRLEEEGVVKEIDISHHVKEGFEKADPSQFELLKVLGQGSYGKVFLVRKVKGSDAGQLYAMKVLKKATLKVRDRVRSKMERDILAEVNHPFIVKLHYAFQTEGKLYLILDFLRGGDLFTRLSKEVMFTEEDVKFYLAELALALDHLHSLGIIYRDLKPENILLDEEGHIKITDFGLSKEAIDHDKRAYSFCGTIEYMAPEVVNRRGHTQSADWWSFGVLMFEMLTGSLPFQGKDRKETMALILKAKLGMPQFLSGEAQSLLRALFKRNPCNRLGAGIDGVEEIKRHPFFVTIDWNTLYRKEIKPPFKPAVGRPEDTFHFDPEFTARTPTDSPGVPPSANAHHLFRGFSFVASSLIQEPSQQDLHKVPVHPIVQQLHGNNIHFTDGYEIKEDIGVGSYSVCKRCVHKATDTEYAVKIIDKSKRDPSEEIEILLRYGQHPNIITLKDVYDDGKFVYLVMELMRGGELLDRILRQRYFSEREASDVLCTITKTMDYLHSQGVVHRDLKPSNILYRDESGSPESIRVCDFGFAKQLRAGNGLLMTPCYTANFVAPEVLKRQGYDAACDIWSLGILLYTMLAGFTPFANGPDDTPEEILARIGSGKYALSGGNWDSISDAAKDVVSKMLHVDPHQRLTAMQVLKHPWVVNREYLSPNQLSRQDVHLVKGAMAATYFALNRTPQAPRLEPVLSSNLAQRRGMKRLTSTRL
Sequence of Activin receptor type-1-like (Homo sapiens) (P37023 whole entry): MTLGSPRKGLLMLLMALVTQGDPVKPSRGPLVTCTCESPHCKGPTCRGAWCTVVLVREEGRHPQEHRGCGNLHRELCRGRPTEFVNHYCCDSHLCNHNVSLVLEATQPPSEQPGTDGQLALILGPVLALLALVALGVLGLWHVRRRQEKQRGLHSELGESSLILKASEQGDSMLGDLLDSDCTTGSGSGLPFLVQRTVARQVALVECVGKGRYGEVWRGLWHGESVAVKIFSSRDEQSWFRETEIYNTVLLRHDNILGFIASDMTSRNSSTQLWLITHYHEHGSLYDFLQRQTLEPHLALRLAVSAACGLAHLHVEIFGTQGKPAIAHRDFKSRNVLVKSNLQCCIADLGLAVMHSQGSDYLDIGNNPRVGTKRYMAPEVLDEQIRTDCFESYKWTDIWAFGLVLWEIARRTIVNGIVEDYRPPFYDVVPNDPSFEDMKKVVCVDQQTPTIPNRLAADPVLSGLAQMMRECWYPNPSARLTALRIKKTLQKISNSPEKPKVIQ
Sequence of Calcium/calmodulin-dependent protein kinase type II subunit gamma (Homo sapiens) (Q13555 whole entry, the tested form may be a part): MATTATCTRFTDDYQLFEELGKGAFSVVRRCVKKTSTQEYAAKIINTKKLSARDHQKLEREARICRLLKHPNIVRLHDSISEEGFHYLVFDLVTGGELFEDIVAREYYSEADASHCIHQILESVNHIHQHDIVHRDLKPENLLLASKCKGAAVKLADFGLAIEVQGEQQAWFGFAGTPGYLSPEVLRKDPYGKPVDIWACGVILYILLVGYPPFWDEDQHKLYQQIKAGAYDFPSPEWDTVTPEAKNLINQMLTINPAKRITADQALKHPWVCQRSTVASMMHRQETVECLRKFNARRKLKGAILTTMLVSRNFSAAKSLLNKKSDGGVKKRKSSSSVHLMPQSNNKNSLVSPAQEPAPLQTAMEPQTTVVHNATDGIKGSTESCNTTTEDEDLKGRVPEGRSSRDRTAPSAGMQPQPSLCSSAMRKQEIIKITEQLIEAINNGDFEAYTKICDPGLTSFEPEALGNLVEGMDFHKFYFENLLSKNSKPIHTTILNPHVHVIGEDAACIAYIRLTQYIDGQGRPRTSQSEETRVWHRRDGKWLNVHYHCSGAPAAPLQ

SMILES	Activity [1] [%]	Activity [2] [%]	Activity [3] [%]	Activity [4] [%]	Activity [5] [%]	Activity [6] [%]	Activity [7] [%]
COc1cc2nc(C)nc(N[C@H](C)c3cccc(-c4cn[nH]c4)c3)c2cc1OC	99	100	66	94	83	100	77
COc1cc2ncnc(N[C@H](C)c3cccc4ccccc34)c2cc1OC	100	90	100	100	92	100	82

Source: ChEMBL document CHEMBL5678818, “Discovery of potent SOS1 inhibitors that block RAS activation via disruption of the RAS-SOS1 interaction” (Proc Natl Acad Sci U S A, 2019)
